Measurements taken from publication PMC12305494, “Discovery of PXR Antagonist MI891 and PXR Degrader MI1013 and Their Roles in Hepatic Gene Regulation” (Journal of Medicinal Chemistry, 2025).
Substitutions are numbered along the chain they refer to. Like-named read-outs stand apart in the source and are kept apart here.

Columns and labels:
[1] = Microsomal stability, mouse microsomes; format: in vitro ADME; settings: liver microsomes; for half-life at 5 μM: 0.5 mg/mL mouse microsomes, up to 45 min, read-out: Microsomal stability, t1/2 (min), mouse
Experimental: (§1) The protocols and reagents for the plasma protein binding assay and metabolic stability testing in human and mouse liver microsomes are detailed in our previous report. […] The stability of compounds was tested in human and mouse microsomes (ThermoFisher Scientific). Compounds were tested in triplicate with or without NADPH wells as a negative control for cytochrome P450 metabolism. […] Each assay included a substrate with known activity as a positive control. Time points were analyzed by LC/MS/MS. The peak area for the parent compound is compared to the time zero sample in order to assess the amount of remaining compound.

PXR [2] = biological target: T1, PXR (Homo sapiens, UniProt O75469); assay: cell-based; settings: PXR antagonism: PXR inhibition (IC50, μM), antagonist mode with 10 μM rifampicin; mean ± SD, n = 3
T1 sequence (O75469 1-434): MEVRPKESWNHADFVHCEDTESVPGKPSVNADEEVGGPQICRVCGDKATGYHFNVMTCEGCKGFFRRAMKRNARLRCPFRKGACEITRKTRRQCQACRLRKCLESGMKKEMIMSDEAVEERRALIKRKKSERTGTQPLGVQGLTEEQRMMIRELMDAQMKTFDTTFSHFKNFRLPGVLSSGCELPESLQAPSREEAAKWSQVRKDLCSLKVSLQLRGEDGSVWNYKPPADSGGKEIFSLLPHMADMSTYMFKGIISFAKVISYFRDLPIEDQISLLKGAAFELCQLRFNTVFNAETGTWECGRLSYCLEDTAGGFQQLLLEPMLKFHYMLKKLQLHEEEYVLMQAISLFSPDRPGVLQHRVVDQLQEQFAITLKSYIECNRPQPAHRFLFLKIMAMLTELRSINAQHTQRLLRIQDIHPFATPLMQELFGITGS

human CAR LBD [3] = biological target: T2, human CAR LBD (Homo sapiens, UniProt Q14994); assay: CAR LBD assembly assay (CAR AA); format: cell-based; settings: na = no activity; tox = cytotoxicity in HepG2 cells
T2 construct: constructs encoding helices 3–12 and helix 1 of human CAR LBD; expressed in transfected cells; host or cells: HepG2
T2 sequence (Q14994 103-150 isoform Q14994-2 limits assumed): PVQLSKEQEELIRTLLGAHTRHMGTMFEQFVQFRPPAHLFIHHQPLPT
T2 sequence (Q14994 151-348 isoform Q14994-2 limits assumed): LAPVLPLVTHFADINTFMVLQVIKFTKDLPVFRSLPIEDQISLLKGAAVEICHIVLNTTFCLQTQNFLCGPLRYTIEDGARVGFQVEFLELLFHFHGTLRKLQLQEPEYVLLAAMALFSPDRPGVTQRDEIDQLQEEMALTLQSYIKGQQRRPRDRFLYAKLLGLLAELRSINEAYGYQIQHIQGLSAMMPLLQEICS
Text: The CAR LBD assembly assay used constructs encoding helices 3–12 and helix 1 of human CAR LBD as described before. GL4.31[luc2P/GAL4UAS/Hygro] (pGAL4 UAS-luc) luciferase reporter vector and pRL-TK Renilla expression vector (Promega) were used in the assay in HepG2 cells transfected using Lipofectamine 3000.

[4] = Microsomal stability, human microsomes; format: in vitro ADME; settings: liver microsomes; for half-life at 5 μM: 0.5 mg/mL human microsomes, up to 45 min, read-out: Microsomal stability, t1/2 (min), human; for microsomal CLint at 5 μM: human microsomes, read-out: Microsomal clearance CLint (μl/min/mg), human
Experimental: as §1

[5] = Plasma stability, human plasma; format: in vitro ADME; settings: up to 120 min, read-out: Plasma stability, t1/2 (min), human
[6] = Plasma stability, mouse plasma; format: in vitro ADME; settings: up to 120 min, read-out: Plasma stability, t1/2 (min), mouse
Experimental: The protocols and reagents for the plasma protein binding assay and metabolic stability testing in human and mouse liver microsomes are detailed in our previous report. Briefly, metabolic stability of compounds was assessed at a single concentration (5 μM) at t = 0, 10, 30, and at t = 45 min. The stability of compounds was tested in human and mouse microsomes (ThermoFisher Scientific). Compounds were tested in triplicate with or without NADPH wells as a negative control for cytochrome P450 metabolism. In addition to hepatic metabolism, compounds were also subjected to degradation/modification by enzymes in human (VWR International) and mouse (Biomedica, CZ) plasma for t = 0, 30, 60, and at t = 120 min. Each assay included a substrate with known activity as a positive control. Time points were analyzed by LC/MS/MS. The peak area for the parent compound is compared to the time zero sample in order to assess the amount of remaining compound.

human CAR LBD [7] = biological target: T3, human CAR LBD (Homo sapiens, UniProt Q14994); assay: LanthaScreen TR-FRET CAR Coactivator assay; format: biochemical; settings: nb = no binding
T3 sequence (Q14994 103-352): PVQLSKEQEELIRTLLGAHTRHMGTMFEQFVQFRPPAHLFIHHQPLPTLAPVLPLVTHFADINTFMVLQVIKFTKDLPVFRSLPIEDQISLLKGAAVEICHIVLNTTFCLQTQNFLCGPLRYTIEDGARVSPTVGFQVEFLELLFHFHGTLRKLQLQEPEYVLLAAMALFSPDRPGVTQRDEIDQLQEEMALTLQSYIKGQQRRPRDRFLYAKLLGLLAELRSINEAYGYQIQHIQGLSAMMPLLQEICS
Experimental: We utilized the LanthaScreen TR-FRET CAR Coactivator Binding Assay Kit, goat (Thermo Fisher Scientific, Cat. No. PV4836), which includes GST-tagged human CAR LBD and a fluorescein-labeled PGC1α coactivator peptide. The assay was performed with slight modifications to the manufacturer’s protocol, as previously reported. […] The interaction with the PXR ligand-binding domain (LBD) was assessed using the LanthaScreen TR-FRET PXR Competitive Binding Assay (Thermo Fisher Scientific, PV4839), as previously described. This assay quantifies the ability of test compounds to displace a fluorescent PXR ligand from the receptor. Fluorescence readings were taken on a Synergy 2 Multi-Mode Microplate Reader (BioTek, Winooski, VT). The half-maximal inhibitory concentration (IC50) for PXR LBD was calculated from at least eight data points using GraphPad Prism software.

PXR [8] = test system: PXR; parameters: method as in not given; settings: ref not given, cited from earlier work
PXR [9] = test system: PXR; parameters: method as in not given; settings: read-out: Ki printed beside SPA70 in Figure 6A; ref not given; cited from earlier work
HepaRG cells = assay: RT-qPCR gene expression in differentiated HepaRG cells; format: cell-based, human; settings: 48 h
Experimental: HepaRG cells (Sigma-Aldrich/Merck) were cultivated and differentiated on 12-well plates. Seeded at 26,600 cells/cm^2, they were maintained in William’s medium with supplements. After 14 days, differentiation into hepatocyte-like cells was induced using 1.5% DMSO for another 14 days.
RT-qPCR was utilized to investigate gene expression in HepaRG and PHH. Total RNA was extracted from these cells using the phenol–chloroform method. The concentration of the isolated RNA was then measured using a Nanodrop 1000 spectro-photometer (Thermo Fisher Scientific).
Following RNA isolation, reverse transcription was performed to convert RNA into complementary DNA (cDNA). This step was carried out using the High-capacity cDNA reverse transcription kit (Cat. No. 4374966, ThermoFisher Scientific). The resulting cDNA served as the template for subsequent qPCR reactions.
The qPCR reactions were conducted on the QuantStudio 6 Flex Real-Time PCR System (ThermoFisher Scientific, Waltham, Mas-sachusetts). For these reactions, TaqMan Universal master mix II (Cat. No. 4440047, ThermoFisher Scientific) and TaqMan assays (FAM) utilized in this study are detailed in the Supporting Information. To quantify gene expression, the cycle threshold (Ct) values of the target genes were normalized to the Ct values of reference genes HPRT1 or GAPDH (HepaRG) or TBP (PHH). The normalized values were then expressed as fold changes (2−ΔΔCt) relative to the DMSO control at the specified time points, with the control set as 1.

[10] = biological target: T4, triple mutant (S208W/S247W/C284W) PXR LBD (Homo sapiens, UniProt O75469, C284W/S208W/S247W); assay: Mammalian two-hybrid assay, obstructed triple mutant PXR LBD with SRC-1-VP16 in HepG2; format: cell-based
T4 construct: the GAL4-PXR-LBD triple mutants (S247W/C284W/S208W) construct; expressed in transfected cells; host or cells: HepG2
T4 sequence (O75469 146-433 S208W/S247W/C284W limits assumed): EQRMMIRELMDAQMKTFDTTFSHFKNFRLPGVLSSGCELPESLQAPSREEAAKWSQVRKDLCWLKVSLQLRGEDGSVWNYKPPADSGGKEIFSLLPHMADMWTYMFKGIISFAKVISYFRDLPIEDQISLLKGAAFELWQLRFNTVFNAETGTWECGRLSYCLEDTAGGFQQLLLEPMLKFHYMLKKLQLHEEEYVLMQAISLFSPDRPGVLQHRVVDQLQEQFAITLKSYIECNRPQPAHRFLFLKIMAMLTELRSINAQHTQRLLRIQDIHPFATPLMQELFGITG
Text: (§2) Additionally, the GAL4-PXR-LBD triple mutants (S247W/C284W/S208W) construct and wild-type GAL4-wtPXR vector were used for PXR LBD mutant functional two-hybrid assay as we described before. In the mammalian two-hybrid assay, HepG2 cells were cotransfected with a GAL4-hPXR LBD construct and pSCR1-VP16 construct. Renilla luciferase vector was used for the normalization of firefly luciferase activity to Renilla luciferase activity.

wild-type PXR LBD = biological target: T5, wild-type PXR LBD (Homo sapiens, UniProt O75469); assay: Mammalian two-hybrid assay, wt-PXR LBD with SRC-1-VP16 in HepG2; format: cell-based; settings: MI891 at 10 μM
T5 construct: HepG2 cells were cotransfected with a GAL4-hPXR LBD construct and pSCR1-VP16 construct; expressed in transfected cells; host or cells: HepG2
T5 sequence (O75469 146-433 limits assumed): T4 sequence (O75469 146-433 S208W/S247W/C284W limits assumed) with W63S, W102S, W139C
Text: as §2

Row | half-life at 5 μM [1] [min] | microsomal CLint at 5 μM ([1]; mouse microsomes, read-out: Microsomal clearance CLint (μl/min/mg), mouse) [µL/min/mg] | IC50 (PXR [2]) [µM] | half-life at 5 μM [4] [min] | microsomal CLint at 5 μM [4] [µL/min/mg] | half-life [5] [min] | half-life [6] [min] | CAR TR-FRET (EC50, μM) (human CAR LBD [7]) | CYP2B6 gene expression (HepaRG cells; MI891 5 μM, SPA70 5 μM) | CYP3A4 mRNA expression (HepaRG cells; alone or with rifampicin (5 μM), concentration-dependent) | SMILES | EC50 (human CAR LBD [3]) [µM] | IC50 (PXR [8]; quoted in the Introduction, read-out: PXR antagonist IC50) [µM] | IC50 (PXR [8]; read-out: IC50 printed beside SPA70 in Figure 6A) [µM] | Ki (PXR [9]) [µM] | activation of obstructed mutated PXR LBD two-hybrid [10] | effect on wt-PXR-LBD/SRC1-VP16 two-hybrid (wild-type PXR LBD)
1 | 8 | 168 ± 8 | 12.4 ± 6 | 50 ± 4 | 28 ± 2 | > 120 | > 120 | nb |  |  | NC(=O)c1cc(Cn2cc(-c3c(-c4ccc(Cl)cc4)nc4c(F)cccn34)nn2)ccc1Cl [Compound 8, 2-Chloro-5-((4-(2-(4-chlorophenyl)-8-fluoroimidazo[1,2-a]pyridin-3-yl)-1H-1,2,3-triazol-1-yl)methyl)benzamide] | 4.14 ± 0.2 |  |  |  |  | 
2 | > 45 |  | 6.46 ± 0.6 | 55 ± 9 | 26 ± 4 | > 120 | > 120 | nb |  |  | NC(=O)c1cc(Cn2cc(-c3c(-c4ccc(Cl)cc4)nc4ccc(F)cn34)nn2)ccc1Cl [Compound 10, 2-Chloro-5-((4-(2-(4-chlorophenyl)-6-fluoroimidazo[1,2-a]pyridin-3-yl)-1H-1,2,3-triazol-1-yl)methyl)benzamide] | > 10 |  |  |  |  | 
3 |  |  |  |  |  |  |  |  |  |  | CCC[C@H](CC)Oc1ccc(C(=O)OC)cc1NC(=O)c1nnn(-c2cc(OC)ccc2OC)c1C [SJPYT-331] |  | 0.0071 ± 0.0008 |  |  |  | 
4 |  |  |  |  |  |  |  |  | downregulated | CYP3A4 mRNA suppression | COc1ccc(OC)c(-n2nnc(S(=O)(=O)c3ccc(C(C)(C)C)cc3)c2C)c1 [SPA70, reference compound] |  |  | […] | […] | Neither MI891 nor SPA70 activated the obstructed mutated PXR LBD | activated the wild-type (wt) PXR LBD construct
